According to ChEMBL document CHEMBL1201862, “PubChem BioAssay data set” (2004):
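Values below derive from 48-hour exposures of cells grown in 96-well plates, with endpoints linearly interpolated between the two concentrations bracketing the appropriate inhibition level. GI50: concentration for 50% inhibition of growth.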 Calls of active or inactive are those of the source. Cut-off read from the data, not from the text of the source: active = GI50 up to about 1.1 µM and inactive = higher.

Assays:
Assay in all cases: NCI tumour cell line growth inhibition, 48 h
[1] = test system: SR
[2] = test system: OVCAR-8
[3] = test system: SF-539
[4] = test system: OVCAR-5
[5] = test system: 786-0
[6] = test system: OVCAR-3
[7] = test system: SK-MEL-28
[8] = test system: U-251
[9] = test system: MOLT-4
[10] = test system: M14
[11] = test system: SN12C
[12] = test system: SW-620
[13] = test system: TK-10
[14] = test system: HCC 2998
[15] = test system: CAKI-1
[16] = test system: RXF 393
[17] = test system: DU-145
[18] = test system: BT-549
[19] = test system: A549
[20] = test system: A498

Measured: GI50

COC(=O)C(Cc1ccc(OC)cc1O)NC(=O)OC(C)(C)C (configuration not stated)
inactive: [1] > 100 µM | [2] > 100 µM | [3] > 100 µM | [4] > 100 µM | [5] > 100 µM | [6] > 100 µM | [7] > 100 µM | [8] > 100 µM | [9] > 100 µM | [10] > 100 µM | [11] > 100 µM | [12] > 100 µM | [13] > 100 µM | [14] > 100 µM | [15] > 100 µM | [16] > 100 µM | [17] > 100 µM | [18] > 100 µM | [19] > 100 µM

O=C(C1OC1c1ccc([N+](=O)[O-])cc1)C12CC3CC(CC(C3)C1)C2 (configuration not stated)
inactive: [2] 16.6 µM | [3] 15.3 µM | [4] 21 µM | [5] 9.98 µM | [6] 13.7 µM | [7] 17.6 µM | [20] 20.9 µM | [8] 11.9 µM | [9] 18.5 µM | [10] 15.2 µM | [11] 13.1 µM | [12] 20.7 µM | [13] 18.1 µM | [14] 20.7 µM | [15] 20.3 µM | [16] 22.5 µM | [17] 18.2 µM | [18] 23.8 µM | [19] 25.7 µM

Cn1cnc2c1c(=O)n(CCNCCO)c(=O)n2C
inactive: [2] > 100 µM | [3] > 100 µM | [4] > 100 µM | [5] > 100 µM | [6] > 100 µM | [7] > 100 µM | [20] > 100 µM | [8] > 100 µM | [9] > 100 µM | [10] > 100 µM | [11] > 100 µM | [12] > 100 µM | [13] > 100 µM | [14] > 100 µM | [15] > 100 µM | [16] > 100 µM | [17] > 100 µM | [18] > 100 µM | [19] > 100 µM

CC1=NN(C(=O)CC(=O)Nc2ccccc2Cl)C(=O)C1/N=N\c1ccc(S(=O)(=O)c2ccc(/N=N/C3C(=O)N(C(=O)CC(=O)Nc4ccccc4Cl)N=C3C)cc2)cc1 (configuration not stated)
inactive: [1] > 100 µM | [2] > 100 µM | [3] > 100 µM | [4] > 100 µM | [5] > 100 µM | [6] > 100 µM | [7] > 100 µM | [8] > 100 µM | [9] > 100 µM | [10] > 100 µM | [11] > 100 µM | [12] > 100 µM | [13] > 100 µM | [14] > 100 µM | [15] > 100 µM | [16] > 100 µM | [17] > 100 µM | [18] > 100 µM | [19] > 100 µM

O=S1(=O)OCCCOS(=O)(=O)C1Br
inactive: [1] > 100 µM | [2] > 100 µM | [3] > 100 µM | [4] > 100 µM | [5] > 100 µM | [6] > 100 µM | [7] > 100 µM | [8] > 100 µM | [9] > 100 µM | [10] > 100 µM | [11] > 100 µM | [12] > 100 µM | [13] > 100 µM | [14] > 100 µM | [15] > 100 µM | [16] > 100 µM | [17] > 100 µM | [18] > 100 µM | [19] > 100 µM

Oc1ccc(N=C2CCC(=C(c3ccccc3)c3ccc(Nc4ccc(O)cc4)cc3)CC2)cc1
inactive: [1] 19.7 µM | [2] 48.5 µM | [3] 46.1 µM | [4] > 100 µM | [5] 78.7 µM | [7] > 100 µM | [20] > 100 µM | [8] 47.3 µM | [9] 83.6 µM | [10] > 100 µM | [11] 54.6 µM | [12] 58.1 µM | [13] > 100 µM | [14] 64.3 µM | [15] 35.4 µM | [16] 58.6 µM | [17] 60.8 µM | [19] 83.9 µM

CC(=O)N1C(OC(C)C)CC(C)N1c1ccccc1 (configuration not stated)
inactive: [1] > 10 µM | [2] > 10 µM | [3] > 10 µM | [4] > 10 µM | [5] > 10 µM | [6] > 10 µM | [7] > 10 µM | [9] > 10 µM | [10] > 10 µM | [11] > 10 µM | [12] > 10 µM | [13] > 10 µM | [14] > 10 µM | [15] > 10 µM | [16] > 10 µM | [17] > 10 µM | [18] > 10 µM | [19] > 10 µM

OCCNCNc1nc(NCNCCO)nc(N(CNCCO)CNCCO)n1
inactive: [2] 24.3 µM | [3] 19.6 µM | [4] 13.6 µM | [5] 17.7 µM | [6] 22.6 µM | [7] 24.4 µM | [20] 28.1 µM | [8] 21.1 µM | [9] 23.2 µM | [10] 19 µM | [11] 22.3 µM | [12] 19.8 µM | [13] 28.8 µM | [14] 18.9 µM | [15] 22.4 µM | [16] 15 µM | [17] 18.5 µM | [18] 21.1 µM | [19] 27.2 µM

Cc1n[nH]c(=O)n1/N=C/c1cccc(Cl)c1
inactive: [2] 64.7 µM | [3] 89.5 µM | [4] > 100 µM | [5] > 100 µM | [6] > 100 µM | [7] > 100 µM | [20] 40.8 µM | [8] 65.5 µM | [9] 49.3 µM | [10] > 100 µM | [11] > 100 µM | [12] > 100 µM | [14] > 100 µM | [15] > 100 µM | [16] 20.2 µM | [17] 35.6 µM | [18] 47.2 µM | [19] > 100 µM

O=C(/C=C(\Nc1ccccc1O)c1ccccc1)C(=O)NC12CC3CC(CC(C3)C1)C2
inactive: [1] 5.33 µM | [2] > 10 µM | [3] 8.93 µM | [4] 8.45 µM | [5] > 10 µM | [6] > 10 µM | [7] > 10 µM | [20] > 10 µM | [8] > 10 µM | [9] 5.66 µM | [10] > 10 µM | [11] > 10 µM | [12] > 10 µM | [13] > 10 µM | [14] > 10 µM | [15] > 10 µM | [16] > 10 µM | [17] > 10 µM

O=C1C=CC[C@H](/C=C/C[C@@H](O)C[C@H](O)/C=C/c2ccccc2)O1
inactive: [2] 14.4 µM | [3] 9.89 µM | [4] 15.1 µM | [5] 16.1 µM | [6] 11.5 µM | [7] 16.7 µM | [20] 14.1 µM | [8] 11.9 µM | [9] 14 µM | [10] 14.4 µM | [11] 13.8 µM | [12] 13.5 µM | [13] 11.7 µM | [14] 2.28 µM | [15] 6.4 µM | [16] 6.89 µM | [17] 13.3 µM | [18] 10.8 µM | [19] 15.8 µM

COc1cc(C2S/C(=C/c3ccccc3)C(=O)N2c2cccc([N+](=O)[O-])c2)cc(OC)c1OC (configuration not stated)
inactive: [1] 46.6 µM | [2] > 100 µM | [4] > 100 µM | [5] 51.4 µM | [7] > 100 µM | [20] > 100 µM | [8] 27.5 µM | [9] 70.3 µM | [10] 72.1 µM | [11] > 100 µM | [13] > 100 µM | [14] > 100 µM | [15] 48.8 µM | [18] > 100 µM | [19] > 100 µM

Cc1ccc(-c2c(C#N)c(O)n(NS(=O)(=O)c3ccccc3)c(=O)c2C#N)cc1
inactive: [2] > 100 µM | [3] > 100 µM | [4] > 100 µM | [5] > 100 µM | [7] > 100 µM | [20] > 100 µM | [8] > 100 µM | [9] > 100 µM | [10] > 100 µM | [11] > 100 µM | [12] > 100 µM | [13] > 100 µM | [14] > 100 µM | [15] > 100 µM | [16] > 100 µM | [18] > 100 µM | [19] > 100 µM

CCOC(=O)C(=[N+]=[N-])C(=O)CSC#N
inactive: [2] 46 µM | [3] 21.3 µM | [4] > 100 µM | [5] > 100 µM | [7] > 100 µM | [20] > 100 µM | [8] 46.5 µM | [9] 39.2 µM | [10] 23.8 µM | [11] 25.6 µM | [12] 57.3 µM | [13] 94.8 µM | [15] 32.7 µM | [16] > 100 µM | [17] > 100 µM | [18] 86.9 µM | [19] 97.7 µM

C=CC[C@H]1O[Si](C(C)(C)C)(C(C)(C)C)[C@H](C)[C@H]1C
inactive: [1] 59.6 µM | [2] > 100 µM | [3] > 100 µM | [4] > 100 µM | [5] > 100 µM | [6] > 100 µM | [7] > 100 µM | [20] > 100 µM | [8] > 100 µM | [9] > 100 µM | [10] > 100 µM | [11] > 100 µM | [12] > 100 µM | [13] > 100 µM | [14] > 100 µM | [15] > 100 µM | [18] > 100 µM | [19] > 100 µM
